Data: PubChem BioAssay AID2060883 (Molecular Pharmacology Branch, DTP, NCI, 2025)

System: 843782-103-R-J1-PDC complex spheroid viability
Assay: Anticancer human tumor 843782-103-R-J1-PDC patient-derived lung adenocarcinoma cell line growth inhibition [RAS]
Conditions: for IC50: curve of first compound; for viability, T/C: stronger effect = lower value
Description: RAS pathway inhibitors in Combinations in Complex Spheroids
A high-throughput screen of multi-cell type tumor spheroids was designed to identify active combinations of RAS pathway inhibitors and targeted small molecules. Complex spheroids include a stromal component modeled by human endothelial cells (HUVEC) and fibroblasts modeled by human mesenchymal stem cells (MSCs). The concentration ranges selected for each drug and investigational agent were based upon clinically achievable concentrations if the clinical Cmax of the agent was known.
Compounds. The drugs and investigational agents: abemaciclib (NSC768073), cobimetinib (NSC768068), divarasib (GDC6063, NSC841802), docetaxel (NSC628503), GDC-1971 (RLY-1971, NSC841576), gemcitabine (NSC613327), inavolisib (NSC800729), ipatasertib (NSC767898), KB-0742 (NSC834161), MRTX-1133 (NSC836407), osimertinib (NSC779217), RMC-4630 (NSC839698), RMC-6236 (NSC851965), RMC-6291 (NSC852671), Ro-3306 (NSC812927), sapanisertib (NSC764658), SN-38 (NSC673596), staurosporine (NSC755774), SY5609 (NSC837396), and tovorafenib (DAY101, NSC766906), were obtained from the National Cancer Institute (NCI) Developmental Therapeutics Program Chemical Repository. The FDA-approved anticancer drug set is available from the NCI Developmental Therapeutics Program. […] The stock solutions were prepared in dimethyl sulfoxide (DMSO, Sigma-Aldrich, St. Louis, MO, cat. D2650) at 800-fold the tested concentration and stored at -70 degrees C prior to their use. All drugs and investigational agents were tested over a range starting from a high concentration at or near the clinical Cmax and decreasing in half-log increments. If the clinical Cmax for an agent had not been determined, the highest concentration tested was 10 microM.
Cell Culture. All cells were maintained in an incubator at 37 degrees C and 5% CO2 with 95% humidity. The PDC lines were cultured according to standard operating procedures established by the NCI PDMR. All PDCs were thawed and cultured in Matrigel-coated flasks prepared with a working solution of 1X Ham's F-12 nutrient mix, without supplementation (Invitrogen, Waltham, MA, cat. 11765054), 100 U/mL penicillin-streptomycin (Invitrogen, cat. 15140122), and 2.5% Matrigel (Corning Inc., Corning, NY, cat. 354248) for the first three passages. The 362531-283-R-J2-PDC and 782815-120-R-J1-PDC lines were cultured in 6C/Colon 1B media, which includes advanced DMEM/F-12 (Thermo Fisher Scientific, cat. 12634028), 10 mM HEPES (Thermo Fisher Scientific, cat. 15630080), 1X GlutaMAX supplement (Thermo Fisher Scientific, cat. 35050061), 0.1 mg/mL primocin (InvivoGen, San Diego, CA, cat. ant-pm-2), 10% defined fetal bovine serum, heat inactivated (HyClone Laboratories Inc., Logan, UT, cat. SH30070.03HI), 50% L-WRN conditioned media (ATCC, cat. CRL-3276), 1.25 mM N-Acetyl-L-cysteine (Sigma-Aldrich, cat. A9165), 10 mM nicotinamide (Sigma-Aldrich, cat. N0636), 1X B-27 supplement (Thermo Fisher Scientific, cat. 17504044), 1X N-2 supplement (Thermo Fisher Scientific, cat. 17502048), 50 ng/mL human EGF (Thermo Fisher Scientific, cat. PHG0311), and 10 microM Y-27632 dihydrochloride (Tocris Bioscience, cat. 1254). The K12877-001-R-J1-PDC line was cultured in 6I media, which includes all 6C/Colon 1B media plus 10 ng/mL human FGF-10 (PeproTech, cat. 100-26), 1 ng/mL human FGF-2 (PeproTech, cat. 100-18B), 1 µM prostaglandin E2 (Tocris Bioscience, cat. 2296), […] hydrocortisone (Sigma-Aldrich, cat. H4001), and […] bovine insulin (Sigma-Aldrich, cat. I6634). The K86415-001-R-J1-PDC line was cultured in 6D media, which includes all 6C/Colon 1B media components minus the L-WRN conditioned media. The 485176-168-R4-J1-PDC was cultured in PANC media, which includes all 6C/Colon 1B media plus 100 ng/mL human FGF-10 (PeproTech, cat. 100-26), 500 nM SB-431542 (Selleckchem, cat. S1067), and 10 nM gastrin (Tocris Bioscience, cat. 3006). […]

[1] = second compound 0.0316 µM, first compound 0.0316 µM
[2] = second compound 0.0316 µM, first compound 0.1 µM
[3] = second compound 0.0316 µM, first compound 0.316 µM
[4] = second compound 0.0316 µM, first compound 1 µM
[5] = second compound 0.0316 µM, first compound 3.16 µM
[6] = second compound 0.0316 µM, first compound 10 µM
[7] = second compound 0.1 µM, first compound 0.0316 µM
[8] = second compound 0.1 µM, first compound 0.1 µM
[9] = second compound 0.1 µM, first compound 0.316 µM
[10] = second compound 0.1 µM, first compound 1 µM
[11] = second compound 0.1 µM, first compound 3.16 µM
[12] = second compound 0.1 µM, first compound 10 µM
[13] = second compound 0.316 µM, first compound 0.0316 µM
[14] = second compound 0.316 µM, first compound 0.1 µM
[15] = second compound 0.316 µM, first compound 0.316 µM
[16] = second compound 0.316 µM, first compound 1 µM
[17] = second compound 0.316 µM, first compound 3.16 µM
[18] = second compound 0.316 µM, first compound 10 µM
[19] = second compound 1 µM, first compound 0.0316 µM
[20] = second compound 1 µM, first compound 0.1 µM
[21] = second compound 1 µM, first compound 0.316 µM
[22] = second compound 1 µM, first compound 1 µM
[23] = second compound 1 µM, first compound 3.16 µM
[24] = second compound 1 µM, first compound 10 µM
[25] = second compound 3.16 µM, first compound 0.0316 µM
[26] = second compound 3.16 µM, first compound 0.1 µM
[27] = second compound 3.16 µM, first compound 0.316 µM
[28] = second compound 3.16 µM, first compound 1 µM
[29] = second compound 3.16 µM, first compound 3.16 µM
[30] = second compound 3.16 µM, first compound 10 µM
[31] = second compound 10 µM, first compound 0.0316 µM
[32] = second compound 10 µM, first compound 0.1 µM
[33] = second compound 10 µM, first compound 0.316 µM
[34] = second compound 10 µM, first compound 1 µM
[35] = second compound 10 µM, first compound 3.16 µM
[36] = second compound 10 µM, first compound 10 µM
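Note: viability read after seven days of compound exposure.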

SMILES: Cc1nc(N2CCC3(CC2)COC(C)C3N)c(CO)nc1Sc1ccnc(N)c1Cl (stereo unspecified) + C#Cc1c(F)ccc2cc(O)cc(-c3ncc4c(N5CC6CCC(C5)N6)nc(OCC56CCCN5CC(F)C6)nc4c3F)c12
- IC50 (second compound 0.0316 µM): 8650 nM
- IC50 (second compound 0.1 µM): 5420 nM
- IC50 (second compound 0.316 µM): 4690 nM
- IC50 (second compound 1 µM): 536 nM
- IC50 (second compound 3.16 µM): 141 nM
- IC50 (second compound 10 µM): < 31.6 nM
- viability, T/C [1]: 107%
- viability, T/C [2]: 102%
- viability, T/C [3]: 85.6%
- viability, T/C [4]: 77.2%
- viability, T/C [5]: 68.2%
- viability, T/C [6]: 45.8%
- viability, T/C [7]: 105%
- viability, T/C [8]: 98%
- viability, T/C [9]: 83.1%
- viability, T/C [10]: 72.6%
- viability, T/C [11]: 54.3%
- viability, T/C [12]: 44%
- viability, T/C [13]: 100%
- viability, T/C [14]: 91.4%
- viability, T/C [15]: 79.5%
- viability, T/C [16]: 65.9%
- viability, T/C [17]: 50.6%
- viability, T/C [18]: 46.2%
- viability, T/C [19]: 96%
- viability, T/C [20]: 80.9%
- viability, T/C [21]: 60%
- viability, T/C [22]: 39.5%
- viability, T/C [23]: 29.6%
- viability, T/C [24]: 32.1%
- viability, T/C [25]: 82.6%
- viability, T/C [26]: 54.5%
- viability, T/C [27]: 39.4%
- viability, T/C [28]: 27.9%
- viability, T/C [29]: 27.4%
- viability, T/C [30]: 23.4%
- viability, T/C [31]: 49.2%
- viability, T/C [32]: 32.2%
- viability, T/C [33]: 30.9%
- viability, T/C [34]: 25.4%
- viability, T/C [35]: 21.6%
- viability, T/C [36]: 21.2%

SMILES: NC1c2ccccc2OC12CCN(c1cnc3c(N4CCCc5ncccc54)n[nH]c3n1)CC2 (stereo unspecified) + C#Cc1c(F)ccc2cc(O)cc(-c3ncc4c(N5CC6CCC(C5)N6)nc(OCC56CCCN5CC(F)C6)nc4c3F)c12
- IC50 (second compound 0.0316 µM): 1160 nM
- IC50 (second compound 0.1 µM): 642 nM
- IC50 (second compound 0.316 µM): 231 nM
- IC50 (second compound 1 µM): 72.1 nM
- IC50 (second compound 3.16 µM): < 31.6 nM
- IC50 (second compound 10 µM): < 31.6 nM
- viability, T/C [1]: 92.1%
- viability, T/C [2]: 81.1%
- viability, T/C [3]: 60.6%
- viability, T/C [4]: 53%
- viability, T/C [5]: 40.9%
- viability, T/C [6]: 25.8%
- viability, T/C [7]: 87.8%
- viability, T/C [8]: 69.8%
- viability, T/C [9]: 54.9%
- viability, T/C [10]: 46.2%
- viability, T/C [11]: 37.9%
- viability, T/C [12]: 22.5%
- viability, T/C [13]: 82%
- viability, T/C [14]: 61.8%
- viability, T/C [15]: 42.8%
- viability, T/C [16]: 37.2%
- viability, T/C [17]: 29.4%
- viability, T/C [18]: 21.2%
- viability, T/C [19]: 69%
- viability, T/C [20]: 38.5%
- viability, T/C [21]: 32.9%
- viability, T/C [22]: 26.8%
- viability, T/C [23]: 21.3%
- viability, T/C [24]: 14.9%
- viability, T/C [25]: 43.3%
- viability, T/C [26]: 25.7%
- viability, T/C [27]: 22.9%
- viability, T/C [28]: 18.8%
- viability, T/C [29]: 21.1%
- viability, T/C [30]: 15.9%
- viability, T/C [31]: 30.3%
- viability, T/C [32]: 16.4%
- viability, T/C [33]: 24%
- viability, T/C [34]: 19.1%
- viability, T/C [35]: 17.5%
- viability, T/C [36]: 9.27%

SMILES: Nc1ccn(C2OC(CO)C(O)C2(F)F)c(=O)n1 (stereo unspecified) + C#Cc1c(F)ccc2cc(O)cc(-c3ncc4c(N5CC6CCC(C5)N6)nc(OCC56CCCN5CC(F)C6)nc4c3F)c12
- IC50 (second compound 0.0316 µM): 29.3 nM
- IC50 (second compound 0.1 µM): 39.3 nM
- IC50 (second compound 0.316 µM): 42.6 nM
- IC50 (second compound 1 µM): 32.6 nM
- IC50 (second compound 3.16 µM): 21.8 nM
- IC50 (second compound 10 µM): 14.3 nM
- viability, T/C (second compound 0.0316 µM, first compound 0.00316 µM): 101%
- viability, T/C (second compound 0.0316 µM, first compound 0.01 µM): 101%
- viability, T/C [1]: 46.1%
- viability, T/C [2]: 8.18%
- viability, T/C [3]: 2.69%
- viability, T/C [4]: 1.88%
- viability, T/C (second compound 0.1 µM, first compound 0.00316 µM): 99.5%
- viability, T/C (second compound 0.1 µM, first compound 0.01 µM): 106%
- viability, T/C [7]: 59.7%
- viability, T/C [8]: 8.24%
- viability, T/C [9]: 1.77%
- viability, T/C [10]: 1.7%
- viability, T/C (second compound 0.316 µM, first compound 0.00316 µM): 107%
- viability, T/C (second compound 0.316 µM, first compound 0.01 µM): 103%
- viability, T/C [13]: 65.4%
- viability, T/C [14]: 5.81%
- viability, T/C [15]: 2.1%
- viability, T/C [16]: 2.74%
- viability, T/C (second compound 1 µM, first compound 0.00316 µM): 110%
- viability, T/C (second compound 1 µM, first compound 0.01 µM): 90.7%
- viability, T/C [19]: 54.1%
- viability, T/C [20]: 9.25%
- viability, T/C [21]: 2.99%
- viability, T/C [22]: 2.29%
- viability, T/C (second compound 3.16 µM, first compound 0.00316 µM): 93%
- viability, T/C (second compound 3.16 µM, first compound 0.01 µM): 73.8%
- viability, T/C [25]: 40%
- viability, T/C [26]: 7.44%
- viability, T/C [27]: 2.53%
- viability, T/C [28]: 1.91%
- viability, T/C (second compound 10 µM, first compound 0.00316 µM): 64.6%
- viability, T/C (second compound 10 µM, first compound 0.01 µM): 59.5%
- viability, T/C [31]: 30.3%
- viability, T/C [32]: 9.79%
- viability, T/C [33]: 3.81%
- viability, T/C [34]: 3%
